Measurements published in ChEMBL document CHEMBL4706545, “Antiproliferative effect of mitochondria-targeting allobetulin 1,2,3-triazolium salt derivatives and their mechanism of inducing apoptosis of cancer cells” (Eur J Med Chem, 2020).

Tests used:
[1] = system: SGC-7901; test: Induction of cell cycle arrest in human SGC-7901 cells assessed as accumulation in G2/M phase at 1 uM incubated for 48 hrs by PI staining based flow cytometry analysis (reference value: 11.48 %); format: functional
[2] = system: SGC-7901; test: Induction of ROS-mediated apoptosis in human SGC-7901 cells assessed as necrotic cells at 2 uM incubated for 48 hrs by annexin V-PE and 7-AAD staining based flow cytometry analysis (reference value: 0.733 %); format: functional
[3] = system: SGC-7901; test: Induction of ROS-mediated apoptosis in human SGC-7901 cells assessed as viable cells at 1 uM incubated for 48 hrs in presence of NAC by annexin V-PE and 7-AAD staining based flow cytometry analysis (reference value: 94.8 %); format: functional; conditions: read-out: Activity
[4] = system: SGC-7901; test: Induction of cell cycle arrest in human SGC-7901 cells assessed as accumulation in S phase at 1 uM incubated for 48 hrs by PI staining based flow cytometry analysis (reference value: 31.13 %); format: functional
[5] = system: SGC-7901; test: Induction of ROS-mediated apoptosis in human SGC-7901 cells assessed as late apoptotic cells at 1 uM incubated for 48 hrs by annexin V-PE and 7-AAD staining based flow cytometry analysis (reference value: 3.82 %); format: functional
[6] = system: SGC-7901; test: Induction of apoptosis in human SGC-7901 cells assessed as viable cells at 2 uM incubated for 48 hrs by annexin-V-FITC and PI staining based fluorescence microscopic analysis (reference value: 93.8 %); format: functional; conditions: read-out: Activity
[7] = system: SGC-7901; test: Induction of ROS-mediated apoptosis in human SGC-7901 cells assessed as necrotic cells at 1 uM incubated for 48 hrs by annexin V-PE and 7-AAD staining based flow cytometry analysis (reference value: 0.733 %); format: functional
[8] = system: SGC-7901; test: Induction of ROS-mediated apoptosis in human SGC-7901 cells assessed as late apoptotic cells at 2 uM incubated for 48 hrs in presence of NAC by annexin V-PE and 7-AAD staining based flow cytometry analysis (reference value: 3.45 %); format: functional
[9] = system: SGC-7901; test: Induction of apoptosis in human SGC-7901 cells assessed as necrotic cells at 4 uM incubated for 48 hrs by annexin-V-FITC and PI staining based fluorescence microscopic analysis (reference value: 1.03 %); format: functional
[10] = system: SGC-7901; test: Induction of ROS-mediated apoptosis in human SGC-7901 cells assessed as early apoptotic cells at 1 uM incubated for 48 hrs in presence of NAC by annexin V-PE and 7-AAD staining based flow cytometry analysis (reference value: 1.15 %); format: functional
[11] = system: SGC-7901; test: Induction of ROS-mediated apoptosis in human SGC-7901 cells assessed as late apoptotic cells at 2 uM incubated for 48 hrs by annexin V-PE and 7-AAD staining based flow cytometry analysis (reference value: 3.82 %); format: functional
[12] = system: SGC-7901; test: Induction of cell cycle arrest in human SGC-7901 cells assessed as accumulation in G2/M phase at 4 uM incubated for 48 hrs by PI staining based flow cytometry analysis (reference value: 11.48 %); format: functional
[13] = system: SGC-7901; test: Induction of apoptosis in human SGC-7901 cells assessed as late apoptotic cells at 4 uM incubated for 48 hrs by annexin-V-FITC and PI staining based fluorescence microscopic analysis (reference value: 3.87 %); format: functional
[14] = system: SGC-7901; test: Induction of apoptosis in human SGC-7901 cells assessed as decrease in caspase-8 incubated for 48 hrs by Western blot analysis; format: functional, cell-based; conditions: dose 1-4 µM
[15] = system: SGC-7901; test: Induction of apoptosis in human SGC-7901 cells assessed as early apoptotic cells at 4 uM incubated for 48 hrs by annexin-V-FITC and PI staining based fluorescence microscopic analysis (reference value: 1.87 %); format: functional
[16] = system: SGC-7901; test: Induction of apoptosis in human SGC-7901 cells assessed as late apoptotic cells at 2 uM incubated for 48 hrs by annexin-V-FITC and PI staining based fluorescence microscopic analysis (reference value: 3.87 %); format: functional
[17] = system: SGC-7901; test: Induction of ROS-mediated apoptosis in human SGC-7901 cells assessed as early apoptotic cells at 2 uM incubated for 48 hrs by annexin V-PE and 7-AAD staining based flow cytometry analysis (reference value: 1.89 %); format: functional
[18] = system: ECa-109 cell line; test: Induction of apoptosis in human ECa-109 cells assessed as late apoptotic cells at 4 uM incubated for 48 hrs by annexin-V-FITC and PI staining based fluorescence microscopic analysis (reference value: 2.01 %); format: functional
[19] = system: ECa-109 cell line; test: Induction of ROS generation in human […] cells incubated for 48 hrs by DCFH-DA staining based fluorescence microscopic analysis; format: functional; conditions: dose 1-4 µM
[20] = system: ECa-109 cell line; test: Induction of apoptosis in human ECa-109 cells assessed as decrease in caspase-9 incubated for 48 hrs by Western blot analysis; format: functional, cell-based; conditions: dose 1-4 µM
[21] = system: ECa-109 cell line; test: Induction of cell cycle arrest in human ECa-109 cells assessed as accumulation in G0/G1 phase at 2 uM incubated for 48 hrs by PI staining based flow cytometry analysis (reference value: 52.28 %); format: functional
[22] = system: ECa-109 cell line; test: Induction of apoptosis in human ECa-109 cells assessed as downregulation of Bcl-xl incubated for 48 hrs by Western blot analysis; format: functional, cell-based; conditions: dose 1-4 µM
[23] = system: ECa-109 cell line; test: Induction of apoptosis in human ECa-109 cells assessed as decrease in caspase-8 incubated for 48 hrs by Western blot analysis; format: functional, cell-based; conditions: dose 1-4 µM
[24] = system: ECa-109 cell line; test: Induction of cell cycle arrest in human ECa-109 cells assessed as accumulation in G2/M phase at 1 uM incubated for 48 hrs by PI staining based flow cytometry analysis (reference value: 8.39 %); format: functional
[25] = system: ECa-109 cell line; test: Induction of cell cycle arrest in human ECa-109 cells assessed as accumulation in S phase at 4 uM incubated for 48 hrs by PI staining based flow cytometry analysis (reference value: 39.33 %); format: functional
[26] = system: ECa-109 cell line; test: Induction of apoptosis in human ECa-109 cells assessed as decrease in caspase-3 incubated for 48 hrs by Western blot analysis; format: functional, cell-based; conditions: dose 1-4 µM
[27] = system: ECa-109 cell line; test: Induction of apoptosis in human ECa-109 cells assessed as late apoptotic cells at 2 uM incubated for 48 hrs by annexin-V-FITC and PI staining based fluorescence microscopic analysis (reference value: 2.01 %); format: functional
[28] = system: ECa-109 cell line; test: Induction of ROS-mediated apoptosis in human ECa-109 cells assessed as viable cells at 4 uM incubated for 48 hrs by annexin V-PE and 7-AAD staining based flow cytometry analysis (reference value: 92.7 %); format: functional; conditions: read-out: Activity
[29] = system: ECa-109 cell line; test: Induction of ROS-mediated apoptosis in human ECa-109 cells assessed as necrotic cells at 1 uM incubated for 48 hrs in presence of NAC by annexin V-PE and 7-AAD staining based flow cytometry analysis (reference value: 1.09 %); format: functional
[30] = system: ECa-109 cell line; test: Induction of apoptosis in human ECa-109 cells assessed as viable cells at 1 uM incubated for 48 hrs by annexin-V-FITC and PI staining based fluorescence microscopic analysis (reference value: 95.8 %); format: functional; conditions: read-out: Activity
[31] = system: ECa-109 cell line; test: Induction of ROS-mediated apoptosis in human ECa-109 cells assessed as late apoptotic cells at 4 uM incubated for 48 hrs by annexin V-PE and 7-AAD staining based flow cytometry analysis (reference value: 3.89 %); format: functional
[32] = system: ECa-109 cell line; test: Induction of ROS-mediated apoptosis in human ECa-109 cells assessed as viable cells at 2 uM incubated for 48 hrs by annexin V-PE and 7-AAD staining based flow cytometry analysis (reference value: 92.7 %); format: functional; conditions: read-out: Activity

## C[n+]1nn(Cc2c(F)cccc2Cl)c2c1C[C@]1(C)[C@H]3CC[C@@H]4[C@H]5[C@H]6OC[C@@]5(CCC6(C)C)CC[C@@]4(C)[C@]3(C)CC[C@H]1C2(C)C.[I-]
[1]
  Activity: 5.39%
[2]
  Activity: 0.956%
[3]
  viability at 1 µM: 87.7%
[4]
  Activity: 14.19%
[5]
  Activity: 4.97%
[6]
  viability at 2 µM: 64.6%
[7]
  Activity: 0.838%
[8]
  Activity: 8.6%
[9]
  Activity: 0.158%
[10]
  Activity: 6.13%
[11]
  Activity: 12.3%
[12]
  Activity: 18.35%
[13]
  Activity: 97.3%
[14]
  Activity: Dose-dependent effect
[15]
  Activity: 2.07%
[16]
  Activity: 8.46%
[17]
  Activity: 26.5%

## COc1ccccc1Cn1n[n+](C)c2c1C(C)(C)[C@@H]1CC[C@]3(C)[C@H](CC[C@@H]4[C@H]5[C@H]6OC[C@@]5(CCC6(C)C)CC[C@]43C)[C@@]1(C)C2.[I-]
[18]
  Activity: 92.2%
[19]
  Activity: Dose-dependent effect
[20]
  Activity: Dose-dependent effect
[21]
  Activity: 42.96%
[22]
  Activity: Dose-dependent effect
[23]
  Activity: Dose-dependent effect
[24]
  Activity: 10.81%
[25]
  Activity: 43.8%
[26]
  Activity: Dose-dependent effect
[27]
  Activity: 23%
[28]
  viability at 4 µM: 0.811%
[29]
  Activity: 2.07%
[30]
  viability at 1 µM: 69.1%
[31]
  Activity: 95%
[32]
  viability at 2 µM: 55%
